Laboratory results published in patent US20110105611A1, “USE OF MASLINIC ACID FOR THE TREATMENT OF P[…] THEIR SYMPTOMS THROUGH THE INHIBITION OF COX-2” (Biomaslinic S.L., priority 2008, published 2011).
Entries after “also recorded” stand apart in the source; their conditions may differ. Where two headings read alike, the source gives them in different places.

Experiments:
[1] = test system: promoter of the COX-2 gene; assay: COX-2 promoter luciferase assay in transfected SK-N-SH cells; type: cell-based, human; details: PMA plus ionomycin 6 hours
From the text: (§1) 2. Cell Cultures • Isolation and culture of primary monocytes of peripheral blood. Peripheral blood mononuclear cells (PBMC) coming from healthy adults volunteer donors were isolated by venous blood centrifugation through density gradient with Ficoll-Hypaque. The monocytes were separated through adherence to plastic and later cultured in 24-well plates at a density of 50,000 cells/ml for the enzyme immunoassay (EIA) experiments and in 6-well plates for the immunoblot assays. • Culture of human primary chondrocytes. Chondrocytes were bought from Promocell (Heidelberg, Germany) and cultured in medium conditioned for this type of cells. The cells were cultured in 24-well plates for the determination of PGE2 and IL-6. • Culture of rat primary astrocytes. The astrocyte primary cultures were prepared from neonatal rat brains (1 day old). […] The cultures were expanded in 6-well plates and the production of PGE2 measured in cells after the 3 or 4 pass. • Culture of cell lines. […]
(§2) SK—N—SH cells were transfected with the plasmids COX-2-Luc and IL-6-Luc using the JetPei reagent (Polyplus transfection, France) according to the manufacturer instructions. […] The luciferase activity in the protein extract was determined through the use of the luminometer Autolumat LB9510 (Berthold) following the system instructions of Luciferase assay from Promega (Madison, Wis., USA). […]

[2] = test system: COX-2; assay: COX-2 enzymatic activity in LPS-induced monocytes (conversion of arachidonic acid to PGE2); type: cell-based, human; details: monocytes LPS 24 hours, MA 15 minutes, arachidonic acid 15 μM 15 minutes
Method: In order to determine COX-2 activity, the cells were LPS-stimulated first (10 ng/ml) for 24 hours to induce the cellular expression of the COX-2 protein. After that time the cultures were washed and a new free of serum culture medium, maslinic acid (different concentrations) and arachidonic acid (AA) were added for 15 minutes. During this time, the enzymatic activity of COX-2 was measured by its capacity to produce PGE2 from the AA included in the culture.
Vis-à-vis the possibility of MA acting as inhibitor of COX-2 activity, we induced the expression of COX-2 through the treatment of monocytes with LPS for 24 hours. After this time, the cells were washed three times with a medium without serum and incubated for 15 minutes with growing doses of MA. After this time, arachidonic acid was added to the cultures (15 μM) for other 15 minutes and the conversion to PGE2 was measured by EIA.

[3] = test system: COX-2; assay: COX-2 protein expression in LPS-stimulated monocytes (western blot); type: cell-based, human; details: growing doses of MA, 12 hours, listed as MA
From the text: as §1, with “cells.” for “cells. The cells were cultured in 24-well plates for the determination of PGE2 and IL-6. • Culture of rat primary astrocytes. The astrocyte primary cultures were prepared from neonatal rat brains (1 day old).”
The cells (primary monocytes or SK—N—SH) were stimulated as indicated in each case and lysis solution in 50 μl (20 mM Hepes pH 8.0, 10 mM KCl, 0.15 mM EGTA, 0.15 mM EDTA, 0.5 mM Na3VO4, 5 mM NaF, 1 mM DTT, leupeptin 1 μg/ml, pepstatin 0.5 μg/ml, aprotinin 0.5 μg/ml, 1 mM PMSF y 0.5% NP-40). The protein concentration was determined through the Bradford reagent (Bio-Rad, Richmond, Calif., USA) and 30 μg of proteins were boiled in Laemmli solution and submitted to electrophoresis in gel of SDS/polyacrylamide at 10%. […]

[4] = test system: 8-iso-PGF2α production in human monocytes; assay: Isoprostane (8-iso-PGF2α) release in LPS-stimulated human monocytes (EIA); type: cell-based; details: for release of 8-iso-PGF2α (isoprostanes): human monocytes of peripheral blood after LPS stimulation
From the text: (§3) 2. Cell Cultures • Isolation and culture of primary monocytes of peripheral blood. Peripheral blood mononuclear cells (PBMC) coming from healthy adults volunteer donors were isolated by venous blood centrifugation through density gradient with Ficoll-Hypaque. The monocytes were separated through adherence to plastic and later cultured in 24-well plates at a density of 50,000 cells/ml for the enzyme immunoassay (EIA) experiments and in 6-well plates for the immunoblot assays. • Culture of human primary chondrocytes. Chondrocytes were bought from Promocell (Heidelberg, Germany) and cultured in medium conditioned for this type of cells. The cells were cultured in 24-well plates for the determination of PGE2 and IL-6. • Culture of rat primary astrocytes. The astrocyte primary cultures were prepared from neonatal rat brains (1 day old). The upper part of the brain was opened and the meninges carefully separated to avoid contamination of the cultures with fibroblasts. The cerebral cortex was isolated and a cellular suspension was obtained, which was cultured in DMEM conditioned for the astrocyte culture. The cultures were expanded in 6-well plates and the production of PGE2 measured in cells after the 3 or 4 pass. • Culture of cell lines. SK—N—SH (American Tissue Culture collection, HTB 11) is a cell line derived from a human neuroblastoma and an exponential growth in DMEM supplemented by 2 mmol/l L-glutamine, antibiotics and 10% FCS. The cells were cultured at 37° C. and in an atmosphere at 5% CO2.
(§4) Monocyte cultures were stimulated in the same way as for the production of PGE2 (LPS stimulation for 24 hours) and the amount of 8-iso-prostaglandine F2α (isoprostanes) or IL-6 released by the cells was determined respectively through the systems EIA from Cayman (USA) (catalogue number 516351) or from Pelikine (catalogue number RDI-M1916clb) following the manufacturer instructions.
Isoprostanes such as endoperoxide 8-iso-prostaglandin F2α (8-iso-PGF2α) are metabolites of the oxidation of arachidonic acid and nowadays it is considered one of the best markers of oxidative stress. […]

[5] = test system: tumor cell lines; assay: Apoptosis induction in tumor cell lines (concentration comparison); type: cell-based
[6] = test system: IL-6 production in human monocytes; assay: IL-6 production in LPS-stimulated human monocytes (EIA); type: cell-based
From the text: as §1, §4

[7] = test system: PGE2 production in SK-N-SH cells; assay: PGE2 production in SK-N-SH neuroblastoma cell line; type: cell-based, human
From the text: as §1
(§5) Chondrocyte, monocyte and astrocyte cultures were stimulated with the corresponding activators (IL-1, LPS or PMA plus lonomicine) in presence or absence of several concentrations of maslinic acid during the indicated times. […] PGE2 was determined using the EIA system of Assay Designs (catalogue number 901-001) following the manufacturer instructions.

[8] = test system: PGE2 production in primary astrocytes; assay: PGE2 production in primary rat astrocytes; type: cell-based
From the text: as §1, §5

[9] = test system: TNFα production in primary monocytes; assay: TNFα production in primary monocytes; type: cell-based
[10] = test system: PGE2 production in human monocytes; assay: PGE2 production in LPS-stimulated human monocytes of peripheral blood (EIA); type: cell-based; details: LPS-stimulated human monocytes from peripheral blood
From the text: as §1
Chondrocyte, monocyte and astrocyte cultures were stimulated with the corresponding activators (IL-1, LPS or PMA plus lonomicine) in presence or absence of several concentrations of maslinic acid during the indicated times. […] PGE2 was determined using the EIA system of Assay Designs (catalogue number 901-001) following the manufacturer instructions. […]

[11] = test system: T lymphocytes; assay: Activation and proliferation of T lymphocytes stimulated via TCR; type: cell-based
[12] = test system: IL-6 production in human chondrocytes; assay: IL-6 production in primary human chondrocytes stimulated with IL-1; type: cell-based; details: IL-1 10 U/ml, concentration dependent
From the text: as §1, with “old). The upper part of the brain was opened and the meninges carefully separated to avoid contamination of the cultures with fibroblasts.” for “old).”
(§6) In order to determine if the effect of MA on the production of PGE2 also occurred in another cell type involved in inflammatory phenomena the anti-inflammatory activity of maslinic acid on primary human chondrocytes was determined. […]

[13] = test system: mononuclear cells of human peripheral blood; details: cited from earlier work
[14] = test system: LPS-stimulated murine peritoneal macrophages; details: cited from earlier work
[15] = test system: PGE2 production in human chondrocytes; assay: PGE2 release in primary human chondrocytes stimulated with IL-1; type: cell-based; details: IL-1 10 U/ml; for release of PGE2 induced by IL-1, higher doses: MA 25 and 50 μg/ml
From the text: as §3, §5, §6

[16] = test system: promoter of IL-6; assay: IL-6 promoter luciferase assay in transfected SK-N-SH cells; type: cell-based, human; details: listed as MA
From the text: as §1, §2

CC1(C)CC[C@]2(C(=O)O)CC[C@]3(C)C(=CC[C@@H]4[C@@]5(C)C[C@@H](O)[C@H](O)C(C)(C)[C@@H]5CC[C@]43C)[C@@H]2C1 [maslinic acid, 2-alpha,3-beta-dihydroxyolean-12-en-28-oic acid]
transcriptional activity of the COX-2 gene (luciferase) [1]: does not inhibit the transcriptional activation of the gene promoter of COX-2
transcriptional activity of the COX-2 gene (luciferase) ([1]; listed as MA): did not affect the transcriptional activity of the COX-2 gene
enzymatic activity of COX-2 (conversion of arachidonic acid to PGE2, EIA) [2]: inhibits the enzymatic activity of COX-2
enzymatic activity of COX-2 (conversion of arachidonic acid to PGE2, EIA) ([2]; listed as MA): inhibited in a dose-depending manner the enzymatic activity of COX-2
expression of COX-2 induced by LPS (western blot) [3]: did not inhibit the expression of COX-2
release of 8-iso-PGF2α (isoprostanes) [4]: inhibits the production of isoprostanes
release of 8-iso-PGF2α (isoprostanes) ([4]; listed as MA): inhibits in a concentration depending way the release of 8-iso-PGF2α
inhibiting power on the production of isoprostanes compared with reference antioxidants ([4]; primary monocytes, listed as MA): higher than that of tocopherol and trolox; also recorded: comparable to that of resveratrol
concentrations inhibiting innate and acquired immune responses versus those required to induce apoptosis in tumor cell lines [5]: noticeably lower
IL-6 induced by LPS [6]: inhibits the production
IL-6 induced by LPS ([6]; listed as Maslinic acid): inhibits the production of IL-6
production of PGE2 in SK-N-SH cell line (neuroblastoma) ([7]; listed as Maslinic Acid): Dual Effect
production of PGE2 in SK-N-SH cell line (neuroblastoma) ([7]; listed as Maslinic acid): at high doses inhibits the production of PGE2
production of PGE2 in primary astrocytes [8]: Dual Effect
production of TNFα [9]: inhibits the production
production of PGE2 [10]: inhibits the production; also recorded: inhibited the production of PGE2
production of PGE2 ([10]; listed as Maslinic acid): inhibits the production of PGE2
activation and proliferation of T lymphocytes [11]: inhibits the activation and proliferation of T lymphocytes
production of IL-6 [12]: inhibits the production of IL-6
production of IL-6 ([12]; listed as MA): completely inhibited
inhibition of IL-6, TNFα, NO and hydrogen peroxide [13]: do not find
production of NO [14]: inhibits
production of hydrogen peroxide (ROS) [14]: inhibits
release of IL-6 [14]: inhibits
release of TNFα [14]: inhibits
production of PGE2 after stimulation with IL-1, low doses ([15]; MA 0.1 and 1 μg/ml): an increase in the production of PGE2
release of PGE2 induced by IL-1, higher doses [15]: at high doses inhibits the production of PGE2
release of PGE2 induced by IL-1, higher doses ([15]; listed as MA): a complete inhibition of the release of this prostaglandin
transcriptional activity of the IL-6 promoter (luciferase), IL-1 stimulation ([16]; IL-1, 4 hours): is not produced by a transcriptional inhibition of the gene of IL-6; also recorded: does not inhibit the transcriptional activity of the IL-1 promoter
transcriptional activity of the IL-6 promoter (luciferase), PMA plus ionomycin stimulation ([16]; PMA plus ionomycin, 4 hours): is not produced by a transcriptional inhibition of the gene of IL-6; also recorded: does not inhibit the transcriptional activity of the IL-1 promoter
